The values below are quoted from earlier work in publication PMC10949855 (Journal of veterinary pharmacology and therapeutics, 2022).

The conditions of this series: oral, dogs; ref KuKanich & KuKanich 2015; Matsui et al 1995; cited from earlier work.
As for `CN(C)CCCC1(c2ccc(F)cc2)OCc2cc(C#N)ccc21` (stereo not shown) [citalopram], the TMAX is 1 h.

For the compound `CN/C(=N/CCSCc1nc[nH]c1C)NC#N` [cimetidine], the TMAX is 1.8 h.

Consider `O=C(N[C@H](CO)[C@H](O)c1ccc([N+](=O)[O-])cc1)C(Cl)Cl` [chloramphenicol], for which the TMAX was 1.3 h.

For `CC(=O)N1CCN(c2ccc(OCC3COC(Cn4ccnc4)(c4ccc(Cl)cc4Cl)O3)cc2)CC1` (stereo not shown) [ketoconazole], the TMAX was 2 h.
